Assay results as given in patent US3987200A, “Method for increasing cardiac contractility” (Eli Lilly and Company, priority 1975, dated 1976).
Structures can show the parent of a compound that is named as a salt.

Experiments:
LD50 in mice = conditions: mouse, in vivo
dogs = assay: Cardiac and Blood Pressure Effects in dogs (Table I); type: in vivo; conditions: for Contractile Potency ED50 / Contractile Potency ED100: i.v. infusion; for Blood Pressure Change at Effective dose ED50 / Heart Rate Increase at Effective dose ED50 / Blood Pressure Change at Effective dose ED100 / Heart Rate Increase at Effective dose ED100: i.v.

SMILES: CC(Cc1ccc(O)c(O)c1)NCCCc1ccc(O)cc1 (racemic) [3,4-dihydroxy-N-[3-(4-hydroxyphenyl)-n-propyl]-α-methyl-β-phenethylamine hydrobromide]
- LD50 (LD50 in mice): 82.7 ± 5.72 mg/kg

SMILES: CC(CCc1ccc(O)cc1)NCCc1ccc(O)c(O)c1 (racemic) [dl-, 3,4-dihydroxy-N-[3-(4-hydroxyphenyl)-1-methyl-n-propyl]-β-phenethylamine]
- LD50 (LD50 in mice): 73.2 ± 3.68 mg/kg
- Contractile Potency ED50 (dogs): 3 ± 1 µg/kg/min
- Contractile Potency ED100 (dogs): 10 ± 3 µg/kg/min
- Blood Pressure Change at Effective dose ED50 (dogs; at ED50): 3 ± 5 mm. Hg.
- Heart Rate Increase at Effective dose ED50 (dogs; at ED50): 13 ± 4 Beats/minute
- Blood Pressure Change at Effective dose ED100 (dogs; at ED100): 6 ± 6 mm. Hg.
- Heart Rate Increase at Effective dose ED100 (dogs; at ED100): 30 ± 4 Beats/minute

SMILES: CC(CCc1ccc(O)cc1)NCCc1ccc(O)c(O)c1 (single isomer, unassigned) [d-, d-3,4-dihydroxy-N-[3-(4-hydroxyphenyl)-1-methyl-n-propyl]-β-phenethylamine]
- Contractile Potency ED50 (dogs): 2.8 ± .3 µg/kg/min
- Contractile Potency ED100 (dogs): 6.1 ± .4 µg/kg/min
- Blood Pressure Change at Effective dose ED50 (dogs; at ED50): 8 ± 2 mm. Hg.
- Heart Rate Increase at Effective dose ED50 (dogs; at ED50): 11 ± 3 Beats/minute
- Blood Pressure Change at Effective dose ED100 (dogs; at ED100): 6 ± 3 mm. Hg.
- Heart Rate Increase at Effective dose ED100 (dogs; at ED100): 28 ± 7 Beats/minute

SMILES: CC(CCc1ccc(O)cc1)NCCc1ccc(O)c(O)c1 (single isomer, unassigned) [l-, l-3,4-dihydroxy-N-[3-(4-hydroxyphenyl)-1-methyl-n-propyl]-β-phenethylamine hydrochloride]
- activity on contractile force (in words) (dogs; Table I data): somewhat less active than either the d-isomer or dl-racemate on contractile force
- pressor activity (in words) (dogs; Table I data): marked pressor activity
- Contractile Potency ED50 (dogs; hydrochloride): 9 ± 2 µg/kg/min
- Contractile Potency ED100 (dogs; hydrochloride): 25 ± 5 µg/kg/min
- Blood Pressure Change at Effective dose ED50 (dogs; at ED50, hydrochloride): 39 ± 3 mm. Hg.
- Heart Rate Increase at Effective dose ED50 (dogs; at ED50, hydrochloride): 8 ± 5 Beats/minute
- Blood Pressure Change at Effective dose ED100 (dogs; at ED100, hydrochloride): 63 ± 4 mm. Hg.
- Heart Rate Increase at Effective dose ED100 (dogs; at ED100, hydrochloride): 28 ± 9 Beats/minute
